Source: patent US20150361139A1, “CRYSTALLINE FORM OF LINACLOTIDE” (SANDOZ AG, priority 2013, published 2015)
Read-outs that look alike come from different tables or passages of the source. Peptide text beside a SMILES is read from it.

How the values were obtained:
[1] = 40° C./75% RH, according to U.S. Pat. No. 8,222,201 (WO 2010/059733), cited from earlier work
[2] = Stability tests: solid stored in open vials at 40° C./75% RH, purity by HPLC; assay type: physicochemical; details: for Normalised purity: 40° C./75% RH, open vial
Experimental: The purity of solid samples was measured in area percentage by HPLC analysis using the method reported below:
Approximately 10 mg of material was placed in each vial (ea. 1.5 mL, open, clear glass vial).
Three vials were placed into a beaker which was then stored in a sealed desiccator containing a sodium chloride solution which keeps a constant 75% RH. The desiccator was placed into an oven at 40° C.
One vial at a time was taken out after 7 days, 14 days and 1 month and analysed.
Ovens were temperature monitored using calibrated thermometers with min and max temperatures recorded throughout the stability study.

Structure (SMILES)	Normalised purity ([1]; Day 7) [%]	Normalised purity ([1]; Day 14) [%]	Normalised purity ([1]; Month 1) [%]	Normalised purity ([2]; Day 7) [%]	Normalised purity ([2]; Day 14) [%]	Normalised purity ([2]; Month 1) [%]	Susceptibility to degradation (chemical stability) compared with form alpha ([2]; open atmosphere of 75% RH and 40° C.)
C[C@@H]1NC(=O)[C@@H]2CCCN2C(=O)[C@H](CC(N)=O)NC(=O)[C@@H]2CSSC[C@H](N)C(=O)N[C@H]3CSSC[C@H](NC1=O)C(=O)N[C@@H]([C@@H](C)O)C(=O)NCC(=O)N[C@H](C(=O)N[C@@H](Cc1ccc(O)cc1)C(=O)O)CSSC[C@H](NC(=O)[C@H](Cc1ccc(O)cc1)NC(=O)[C@H](CCC(=O)O)NC3=O)C(=O)N2 [Form Alpha, Linaclotide] (HELM PEPTIDE1{C.C.E.Y.C.C.N.P.A.C.T.G.C.Y}$PEPTIDE1,PEPTIDE1,1:R3-6:R3|PEPTIDE1,PEPTIDE1,2:R3-10:R3|PEPTIDE1,PEPTIDE1,5:R3-13:R3$$$V2.0)	100	94.8	91.9	–	–	–	–
C[C@@H]1NC(=O)[C@@H]2CCCN2C(=O)[C@H](CC(N)=O)NC(=O)[C@@H]2CSSC[C@H](N)C(=O)N[C@H]3CSSC[C@H](NC1=O)C(=O)N[C@@H]([C@@H](C)O)C(=O)NCC(=O)N[C@H](C(=O)N[C@@H](Cc1ccc(O)cc1)C(=O)O)CSSC[C@H](NC(=O)[C@H](Cc1ccc(O)cc1)NC(=O)[C@H](CCC(=O)O)NC3=O)C(=O)N2 [Form II, Linaclotide] (HELM PEPTIDE1{C.C.E.Y.C.C.N.P.A.C.T.G.C.Y}$PEPTIDE1,PEPTIDE1,1:R3-6:R3|PEPTIDE1,PEPTIDE1,2:R3-10:R3|PEPTIDE1,PEPTIDE1,5:R3-13:R3$$$V2.0)	–	–	–	100	100	98.9	less susceptible to degradation than form alpha
